Assay results from patent publication US20120101164A1, “ABSCISSION AND CROP STORAGE UNIT” (TAMINCO, NAAMLOZE VENNOOTSCHAP, priority 2009, published 2012).
Read-outs that look alike come from different tables or passages of the source.

Tests used:
Format in all cases: in vivo
[1] = system: PAPAVER Nudicaule (Iceland Poppy); test: Petal abscission delay, auxins/precursors with or without AC; conditions: for change in vivo at 10000 µM: Papaver nudicaule; for Total Duration of Flowering (to petal fall): auxin/precursor 10^-2 Molar solution, AC 3 g per hectare equivalent
Procedure: (§1) Cultural Details: plants were sown in a commercial seed compost and then “pricked out” into a professional grade all-purpose compost in 9 cm pots set out in a randomized block design. Normal daylight plus supplementary lighting to provide a minimum of 10 hours per day. Heating was given to a minimum of 60 degrees Fahrenheit during the day and 40 degrees at night.
Sowing Date: 18 Nov. […] Application Date: 5 Jan.
Measurement Date: 12 Jan.
A number of auxins or auxin precursors were applied, each at 10^−2 Molar solutions. Addition of acetaminophen (AC) was at 3 g per hectare equivalent in each test. Measurement: Delay of first petal fall for each treatment (in days).

[2] = system: RADISH—cv F1 Apache; test: Post-harvest shelf-life, auxins/precursors with or without AC; conditions: for change in vivo at 10000 µM: Raphanus sativus; for Shelf-Life Duration (days after harvest): ambient temperature, auxin/precursor 10^-2 Molar, AC 3 g per hectare equivalent, two applications
Procedure: as §1
Sowing Date: 3 Nov. […] Application Dates: 28 Dec. […] Harvest Date: 11 Jan. […] Measurement: Shelf-Life (days after harvest) at ambient temperature.
A number of auxins or auxin precursors were compared, each at 10^−2 Molar solutions. Addition of acetaminophen (AC) was at 3 g per hectare equivalent in each test.

[3] = system: PAPAVER Nudicaule (Iceland Poppy); test: Petal abscission delay, AN or AN + AC with additives; conditions: for Total Duration of Flowering (to petal fall): AN 1 g per hectare, AC 3 g per hectare, additive rate per ha as in label
Procedure: (§2) To each were added certain agrochemically acceptable additives, as examples.
as §1
Sowing Date: 19 Dec. 2009, in plugs. Application Date: 7 Feb. 2010.
Measurement Date: 12 Feb. 2010, at daily intervals.
Measurement: Delay of first petal-fall for each treatment (in days).

[4] = system: RADISH—cv F1 Apache; test: Post-harvest shelf-life, AN or AN + AC with additives; conditions: for Shelf-Life Duration (days after harvest): AN 1 g per hectare, AC 3 g per hectare, additive rate per ha as in label
Procedure: as §2, §1
Sowing Date: 28 Jan. 2010, in plugs. Application Date: 5 Mar. 2010.
Measurement Date: 13 Mar. 2010. • Measurement: Shelf-life duration (days).

[5] = duration of flowering, read-out: % Improvement over control
[6] = shelf-life, read-out: % Improvement over control
[7] = read-out: % Improvement over control, duration of flowering
[8] = read-out: % Improvement over control, shelf-life
[9] = read-out: % Improvement over control

Structure (SMILES) | change in vivo at 10000 µM [1, 5] [%] | Total Duration of Flowering (to petal fall) [1] [days] | change in vivo at 10000 µM [2, 6] [%] | Shelf-Life Duration (days after harvest) [2] [days] | change in vivo at 10000 µM [1, 7] [%] | change in vivo at 10000 µM [2, 8] [%] | other results
Nc1c(O)cccc1C(=O)O [3-Hydroxyanthranilic acid] | 18.4 | 11.6 | 15.9 | 7.3 | – | – | –
CC(=O)Nc1ccc(O)cc1 [AC, N-(4-hydroxypheyl)acetamide, reference compound] | 0 | 9.9 | 0 | 6.2 | – | – | Total Duration of Flowering (to petal fall) [3]: 8.8 days; Shelf-Life Duration (days after harvest) [4]: 5.8 days
CC(N)=O [Acetamide] | 19.4 | 11.7 | 38.1 | 8.7 | – | – | –
Nc1ccccc1C(=O)[O-].[Na+] [Anthranilic Acid monosodium salt] | – | 11.7 | – | 7.7 | 19.4 | 22.2 | –
COC(=O)c1ccccc1N [Anthranilic acid methyl ester] | – | 12.1 | – | 8.7 | 23.5 | 38.1 | –
Nc1ccccc1C(=O)O [Anthranilic acid, anthranilic acid] | – | 12.2 | – | 8.6 | – | – | % Improvement over control ([1]; duration of flowering): +24.5%; Total Duration of Flowering (to petal fall) [3]: 10.9 days; % Improvement over appropriate control (ie AN or AN + AC) ([3]; duration of flowering): +0.0%; % Improvement over untreated ([3]; duration of flowering): +23.9%; % Improvement over control ([2]; shelf-life): +36.5%; Shelf-Life Duration (days after harvest) [4]: 8.5 days; % Improvement over untreated ([4]; shelf-life): +44.1%
NC(=O)Cc1c[nH]c2ccccc12 [Indole-3-acetamide] | 21.4 | 11.9 | 3.2 | 6.5 | – | – | –
N[C@@H](Cc1c[nH]c2ccccc12)C(=O)O [L-Tryptophan] | – | 10.8 | – | 6.5 | – | – | change in vivo at 10000 µM [1, 9]: 10.2%; change in vivo at 10000 µM [2, 9]: 3.2%
NCCc1c[nH]c2ccccc12 [Tryptamine] | – | 11.7 | – | 7.0 | 19.4 | 11.1 | –
